Reference: patent publication US20230093399A1, “METHODS FOR GENERATING PLURIPOTENT STEM CELL-DERIVED BROWN FAT CELLS” (AgeX Therapeutics, Inc., priority 2013, published 2023)

What was measured:
cell line E3 = assay: Differentiation of clonal hEP cell line E3 in HyStem beads, Illumina microarray gene expression; type: cell-based, human
Method: (§1) Differentiation medium is high glucose DMEM (CellGro Cat. No. 15-013-CV) with Pyruvate, 1 mM (Gibco Cat. 11360), Pen:Strep 100U/ml:100 ug/ml (Gibco Cat. No. 504284), Glutamax 2 mM (Gibco Cat. No. 35050), Dexamethasone 0.1 uM (Sigma, St. Louis, Mo., Cat. No. D1756-100), L-Proline 0.35 mM (Sigma Cat. No. D49752), 2-phospho-L-Ascorbic Acid 0.17 mM (Sigma, Cat. No. 49792, Fluka), and ITS Premix (BD, Franklin Lakes, N.J., sterile Cat. No. 47743-628) with a final concentration 6.25 ug/ml insulin, 6.25 ug/ml transferrin, 6.25 ng/ml selenious acid, serum albumin 1.25 mg/ml, 5.35 ug/ml linoleic acid. In various differentiation conditions, the Differentiation medium is supplemented with various growth factors or other differentiation factors as described herein.
(§2) The Gelin-S® component (10 mg of thiol-modified gelatin (BioTime)) is dissolved in 1.0 ml of degassed deionized water to prepare a 1% w/v solution, and polyethylene glycol diacrylate (10 mg of PEGDA) is dissolved in 0.5 ml of degassed deionized water to prepare a 2% w/v solution. Then, HyStem (1 ml, 1% w/v) is mixed with Gelin-S (1 ml, 1% w/v) immediately before use. Pelleted cells are resuspended in the recently prepared HyStem:Gelin-S (1:1 v/v) mix described above. Upon the addition of the PEGDA cross-linker, the cell suspension, at a final concentration of 2.0×10^7 cells/ml is aliquoted (25 μl/aliquot) into six-well plates (Corning® 3516; VWR, PA, USA) after partial gelation. Following complete gelation (20 min), Differentiation Medium is added to each well. Plates were then placed in a humidified incubator at 37° C. with ambient O2 and 10% CO2, and the cells were fed three-times weekly. At the desired time point, hydrogel constructs were either fixed and processed for immunohistochemical analysis or lysed using RLT (Qiagen, CA, USA) with 1% beta-mercaptoethanol for total RNA to analyze transcript expression using quantitative real-time PCR (qRT-PCR) and/or whole-genome microarray.
(§3) Total RNA was extracted directly from cells growing in 6-well plates or 10 cm tissue culture dishes using Qiagen RNeasy mini kits according to the manufacturer's instructions. RNA concentrations were measured using a Beckman DU530 or Nanodrop spectrophotometer and RNA quality was determined by denaturing agarose gel electrophoresis or using an Agilent 2100 bioanalyzer. Whole-genome expression analysis was carried out using Illumina Human Ref-8v3 or Human HT-12 v4 BeadArrays, and RNA levels for certain genes were confirmed by qRT-PCR. For the Illumina BeadArrays, total RNA was linearly amplified and biotin-labeled using Illumina TotalPrep kits (Life Technologies, Temecula, Calif., USA), and cRNA was quality-controlled using an Agilent 2100 Bioanalyzer. The cRNA was hybridized to Illumina BeadChips, processed, and read using a BeadStation array reader according to the manufacturer's instructions (Illumina, San Diego, Calif., USA). Values of less than 120 relative fluorescence units (RFUs) were considered as nonspecific background signal.

cell line E72 = assay: Differentiation of cell line E72 in HyStem, gene expression; type: cell-based, human; settings: E72 passage 11; HyStem-C supplemented with 1.0 uM all-trans retinoic acid
Method: HyStem-C (BioTime, Inc. Alameda, Calif.) (BioTime, Alameda, Calif., USA) was reconstituted following the manufacturer's instructions. Briefly, the HyStem component (thiol modified hyaluronan, 10 mg) was dissolved in 1.0 ml degassed deionized water for about 20 minutes to prepare a 1% w/v solution. The Gelin-S component (thiol modified gelatin, 10 mg) was dissolved in 1 ml degassed deionized water to prepare a 1% w/v solution, and PEGDA (PEG diacrylate, 10 mg) was dissolved in 0.5 ml degassed deionized water to prepare a 2% w/v solution. HyStem (1 ml, 1% w/v) was mixed with Gelin-S (1 ml, 1% w/v) immediately before use. Pelleted cells were resuspended in recently prepared HyStem:Gelin-S (1:1 v/v) mix described above. Upon the addition of crosslinker PEGDA, the cell suspension, at a final concentration of 2.0×10^7 cells/ml, was aliquoted at 25 μl aliquot four to five times into each well of 6 well plates (Corning 3516) after partial gelation to form attached beads. Following complete gelation (20 minutes), chondrogenic medium was added to each well (i.e about 4 ml/each well of a 6 well plate). […]
The Gelin-S® component (10 mg of thiol-modified gelatin (BioTime)) is dissolved in 1.0 ml of degassed deionized water to prepare a 1% w/v solution, and polyethylene glycol diacrylate (10 mg of PEGDA) is dissolved in 0.5 ml of degassed deionized water to prepare a 2% w/v solution. […] At the desired time point, hydrogel constructs were either fixed and processed for immunohistochemical analysis or lysed using RLT (Qiagen, CA, USA) with 1% beta-mercaptoethanol for total RNA to analyze transcript expression using quantitative real-time PCR (qRT-PCR) and/or whole-genome microarray.
Total RNA was extracted directly from cells growing in 6-well plates or 10 cm tissue culture dishes using Qiagen RNeasy mini kits according to the manufacturer's instructions. RNA concentrations were measured using a Beckman DU530 or Nanodrop spectrophotometer and RNA quality was determined by denaturing agarose gel electrophoresis or using an Agilent 2100 bioanalyzer. […] The cRNA was hybridized to Illumina BeadChips, processed, and read using a BeadStation array reader according to the manufacturer's instructions (Illumina, San Diego, Calif., USA).

NP110SM cells = assay: Differentiation of clonal embryonic progenitor line NP110SM in HyStem beads, Illumina microarray gene expression; type: cell-based, human; settings: NP110SM; 10 M CL316243 together with 50 ng/ml BMP4 and 5.0 μM rosiglitazone; FIG. 15 lane 9
Method: as §1
as §2, with “HyStem-C (BioTime, Inc. Alameda, Calif.) is a matrix composed of thiol-modified gelatin and thiolated hyaluronan crosslinked in vivo or in vitro with (polyethylene glycol diacrylate (PEGDA). We observed that clonal human embryonic progenitor cell lines such as those described in the present invention, could be efficiently differentiated in high-density cultures of said crosslinked collagen and hyaluronate in the following manner. HyStem-C® (BioTime, CA, USA) is reconstituted following the manufacturer's instructions. Briefly, the HyStem component (10 mg of thiol-modified hyaluronan) is dissolved in 1.0 ml of degassed deionized water for approximately 20 min to prepare a 1% w/v solution. The Gelin-S®” for “The Gelin-S®”
as §3
The line NP110SM was then exposed to differentiation in the BAT cell differentiation protocols described herein. […]

[1] = tested on: Bone marrow-derived mesenchymal stem cells (MSCs); assay: Differentiation of bone marrow-derived MSCs in HyStem-C beads, FABP4 expression; type: cell-based; settings: 14 days, 50 ng/mL BMP2, or 10 ng/mL BMP4, or 100 ng/mL BMP7
Method: as §2

Molecule: O=C(Nc1ccncc1)c1cc([N+](=O)[O-])ccc1Cl [T0070907, reference compound]
- C19ORF80 expression (cell line E3; HyStem with 10 ng/ml BMP4 plus T0070907, compared to HyStem BMP4 alone, cell line not restated): decreased C19ORF80 expression
- THRSP expression (cell line E3; presence of the PPARγ antagonist T0070907, FIG. 7, cell line not restated): decreased to nearly undetectable levels

Molecule: CC1=C(/C=C/C(C)=C/C=C/C(C)=C/C(=O)O)C(C)(C)CCC1 [all-trans retinoic acid, reference compound]
- expression of HOXB6, a marker of lateral plate mesenchyme (cell line E72): induced the expression of HOXB6

Molecule: CN(CCOc1ccc(CC2SC(=O)NC2=O)cc1)c1ccccn1 (stereo not drawn) [rosiglitazone, reference compound]
- ADIPOQ transcript expression (cell line E3; E3, HyStem beads with 1.0 μM rosiglitazone, FIG. 3): > 5,000 RFUs
- UCP1 transcript expression (cell line E3; E3, HyStem beads, 1.0 μM rosiglitazone in combination with 100 ng/ml BMP7, values greater than 160 RFUs above background): 161 RFUs

Molecule: C[C@H](Cc1ccc2c(c1)OC(C(=O)[O-])(C(=O)[O-])O2)NC[C@H](O)c1cccc(Cl)c1.[Na+].[Na+] [CL316243, reference compound]
- UCP1 expression (NP110SM cells): appeared to further increase

B1: BMP7: Bone Morphogenetic Protein 7, TGF-beta superfamily member (protein, UniProt P18075 293-431, looked up)
Bone morphogenetic protein 7: STGSKQRSQNRSKTPKNQEALRMANVAENSSSDQRQACKKHELYVSFRDLGWQDWIIAPEGYAAYYCEGECAFPLNSYMNATNHAIVQTLVHFINPETVPKPCCAPTQLNAISVLYFDDSSNVILKKYRNMVVRACGCH
- PCK1 transcript expression (cell line E3; E3, HyStem beads with 10 ng/ml BMP4 or 100 ng/ml BMP7, FIG. 5): relatively high levels
- expression of C19ORF80 (cell line E3; E3, HyStem supplemented with 100 ng/ml BMP7): highest expression
- differentiation into adipocytes as evidenced by expression of FABP4 [1]: caused the differentiation of the cells into adipocytes
